Reference: article PMC6905855, “Agonist-specific voltage-dependent gating of lysosomal two-pore Na^+ channels” (eLife, 2019)
Values joined by “and” are separate entries in the source; they are usually repeats but may differ in a detail not shown here. Equal values may be shown once. “Also recorded” adds a separate entry of the source.

What was measured:
[1] = test system: T1, TPC2 I551R; assay: Whole-endolysosome recordings of ITPC2-I551R; assay type: biochemical, human
T1 construct: expressed in transfected cells

[2] = test system: T2, TPC2^K204A in HEK293 cells; assay: Whole-cell recordings of ITPC2-K204A; assay type: cell-based, human; settings: TPC2^K204A-transfected HEK293 cells
T2 construct: expressed in transfected cells; host or cells: HEK293

[3] = test system: TPC1/2 DKO HAP1 cells; assay: Whole-endolysosome recordings in TPC1/2 DKO HAP1 cells; assay type: biochemical, human; settings: for whole-endolysome ITPC current: dko HAP1, LyNa-VA1.1 (50 µM) co-applied with PI(3,5)P2 (0.3 µM)
From the text: TCAs, with a general structure of an aromatic greasy core and an aliphatic chain containing a terminal amine, are lysosomotropic compounds that are known to be highly accumulating in the lysosomes due to proton trapping ([Beckmann et al., 2014]). We next tested the effects of LyNa-VAs in hTPC2-transfected Cos1 and HEK293 cells using whole-endolyosome patch-clamp.
(§1) Data are presented as Mean ± S.E.M (n = 3 patches). […] For panels B, D and F, individual data and Mean ± S.E.M are presented. *, p<0.05; **, p<0.01; ***, p<0.001; N.S., no significance. Figure 3—source data 1. […] Figure 3—figure supplement 1. […] Both individual data points and Mean ± S.E.M are presented (n ≥ 3 patches; also see individual data in Figure 3—figure supplement 1—source data 1). Figure 3—figure supplement 1—source data 1.
TPC1 and TPC2 CRISPR KO cells were generated in HAP1 cells using the CRISPR/Cas9 system. The TPC1 sequence (5'cttgcagtacttcagcaccc3', TPC1-sgRNA) and TPC2 sequence (5'ccccagcgtcgggctgctgc3', TPC2-sgRNA) were targeted with pSpCas9 (BB)−2A-puro vector (Addgene). HAP1 cells were co-transfected with TPC1 and TPC2-sgRNA expressing vector in the presence of Lipofectamine 2000 (In vitrogen) and selected with 2 μg/ml puromycin for 48 hr. The remaining cells were trypsinized and seeded into 96-well plate after a limiting dilution. When single cell clones were established, their genomic DNAs were extracted and amplified with following primers: TPC1-fw: 5’atggcccagacatgtgactc3’, TPC1-re: 5’ tgcctgtctccatcctctca3’; TPC2-fw: 5’tgagctgagcatgaggcaag3’, TPC2-re: 5’ aaaggacaagtggccctgag3’. The PCR amplicons were then sequenced to confirm the intended genetic disruption.
(§2) Whole-endolysosome recordings were performed on manually isolated enlarged endolysosomes ([Wang et al., 2012]). In brief, a patch pipette was pressed against a cell and quickly pulled away to slice the cell membrane. Enlarged endolysosomes were released into a dish and identified by monitoring EGFP-TPC1/2 or the mCherry-TPC1/2 fluorescence. After formation of a gigaseal between the patch pipette and the enlarged endolysosome, capacitance transients were compensated. Voltage steps of several hundred mVs with millisecond duration were then applied to break into the vacuolar membrane. The whole-endolysosome configuration was verified by the re-appearance of capacitance transients after break-in.
(§3) Data were collected using an Axopatch 200A patch clamp amplifier, Digidata 1440, and pClamp 10.2 software (Axon Instruments). Whole-endolysosome currents were digitized at 10 kHz and filtered at 2 kHz. All experiments were conducted at room temperature (21–23°C), and all recordings were analyzed with pClamp 10.2, and Origin 8.0 (OriginLab, Northampton, MA). The permeability to cations (relative to PNa) was estimated based on following equations ([Lewis, 1979]) and Erev measurement under bi-ionic conditions:(1) PX/PNa=γNa/γX{[Na^+]Luminal/[X^+]Cytoplasmic}{exp([…])} (2) PCa/PNa=γNa/γCa{[Na^+]Cytoplasmic/[4[Ca^2+]Luminal}{exp(ErevF/RT)}{1+exp(ErevF/RT)} where R, T, F, Erev, and γ are, respectively, the gas constant, absolute temperature, Faraday constant, reversal potential, and activity coefficient.

[4] = test system: endogenous TPCs in WT HAP1 cells; assay: Whole-endolysosome recordings of endogenous ITPC in WT HAP1 cells; assay type: biochemical, human; settings: for whole-endolysome ITPC current: wt HAP1, LyNa-VA1.1 (50 µM) co-applied with PI(3,5)P2 (0.3 µM)
[5] = target: T3, PI(3,5)P2-insensitive mutant TPC2 channel (K204A) (Homo sapiens, UniProt Q8NHX9, K204A); assay: Whole-endolysosome recordings of ITPC2-K204A; assay type: biochemical; settings: for Normalized I-TPC2: TPC2-K204A
T3 construct: expressed in transfected cells; host or cells: HEK293
T3 sequence (Q8NHX9 whole entry K204A): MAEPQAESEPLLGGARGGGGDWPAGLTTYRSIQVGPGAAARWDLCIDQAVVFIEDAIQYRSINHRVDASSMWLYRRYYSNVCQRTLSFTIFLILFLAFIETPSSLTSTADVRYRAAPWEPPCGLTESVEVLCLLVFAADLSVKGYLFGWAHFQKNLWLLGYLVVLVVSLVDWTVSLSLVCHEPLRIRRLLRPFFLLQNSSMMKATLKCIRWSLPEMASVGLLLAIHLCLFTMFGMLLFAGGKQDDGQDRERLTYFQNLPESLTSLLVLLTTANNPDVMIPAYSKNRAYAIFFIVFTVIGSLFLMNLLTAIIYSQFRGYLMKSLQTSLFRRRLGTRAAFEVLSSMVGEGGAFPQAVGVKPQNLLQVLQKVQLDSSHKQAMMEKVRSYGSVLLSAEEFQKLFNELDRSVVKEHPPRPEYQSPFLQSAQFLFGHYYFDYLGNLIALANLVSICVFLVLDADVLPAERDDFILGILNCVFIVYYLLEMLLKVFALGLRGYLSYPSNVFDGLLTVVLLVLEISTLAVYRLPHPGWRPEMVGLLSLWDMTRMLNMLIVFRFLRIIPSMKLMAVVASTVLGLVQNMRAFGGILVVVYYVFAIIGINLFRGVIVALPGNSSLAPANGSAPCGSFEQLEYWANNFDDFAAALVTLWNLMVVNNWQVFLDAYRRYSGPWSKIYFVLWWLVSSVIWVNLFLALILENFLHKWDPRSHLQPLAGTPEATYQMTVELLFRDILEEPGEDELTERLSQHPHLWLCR
From the text: PI(3,5)P2 reportedly binds to Lys204 and adjacent AA residues to activate TPC2 ([She et al., 2019]). […] Lysosomal PI(3,5)P2 may play a permissive role in TPC activation in intact cells ([Ruas et al., 2015]).
as §1
All TPC1 and TPC2 mutants were generated with a site-directed mutagenesis kit (Qiagen) using EGFP- human TPC1 and TPC2 as the templates. All constructs were confirmed by DNA sequencing.
as §2
as §3, with “coefficient. The liquid junction potentials were measured and corrected as described ([Neher, 1992]).” for “coefficient.”

[6] = test system: surface-expressing mutant TRPML1 channels (TRPML1^4A); assay: Whole-cell recordings of ITRPML1-4A; assay type: cell-based; settings: TRPML1-4A wc; 100µM; individual cells

In the case of CNCCCN1c2ccccc2CCc2ccccc21 [LyNa-VA1.2, Desipramine], the “activation of ITPC2-I551R (in words)” value [1] is reported as “failed to affect LyNa-VA1.2 activation” and the “activation of whole-cell ITPC2-K204A (in words)” value [2] is reported as “activated”.

For Nc1nc2ccc(OC(F)(F)F)cc2s1 [LyNA1, Riluzole], the “activation of whole-endolysosome ITPC in TPC1/2 DKO HAP1 cells (in words)” value [3] was “not HAP1 cells lacking TPC1 or TPC2; also recorded: not TPC1/2 double KO HAP1 cells”, the “activation of whole-endolysosome ITPC in WT HAP1 cells (in words)” value [4] was “activated whole-endolysosome ITPC in WT HAP1 cells” and the “activation of whole-cell ITPC2-K204A (in words)” value [2] was “activated”. The “activation of whole-endolysosome ITPC2-K204A (in words)” value [5] was “robustly activated whole-endolysosome ITPC2”.

For CN(C)CCCN1c2ccccc2CCc2ccc(Cl)cc21 [LyNa-VA1.1, Clomipramine], the “activation of whole-endolysosome ITPC in TPC1/2 DKO HAP1 cells (in words)” value [3] was “not TPC1/2 DKO”, the “whole-endolysome ITPC current” value ([3]; individual) was 15.3 pA and 12.5 pA and 24.7 pA and 10.4 pA and the “whole-endolysome ITPC current” value ([3]; mean) was 15.725 pA. For the same compound, the “activation of whole-endolysosome ITPC in WT HAP1 cells (in words)” value [4] was “activated whole-endolysome ITPC in WT”, the “whole-endolysome ITPC current” value ([4]; individual) was 252.1 pA and 207.1 pA and 321.7 pA and 271.3 pA and the “whole-endolysome ITPC current” value ([4]; mean) was 263.05 pA. The EC50 ([5]; K204A +PI(3,5)P2 (50 nM), whole-endolysosome, Figure 3C) was 47 ± 5 µM, the EC50 ([5]; K204A -PI(3,5)P2, whole-endolysosome, Figure 3C) was 56 ± 3 µM and the EC50 ([5]; K204A -pip2, MEAN (Fig. 3D)) was 59.7 µM. The EC50 ([5]; K204A -pip2, individual patches (Fig. 3D)) was 56.4 µM and 68.2 µM and 54.5 µM, the EC50 ([5]; K204A+pip2 (50 nM), MEAN (Fig. 3D)) was 48.7 µM and the EC50 ([5]; K204A+pip2 (50 nM), individual patches (Fig. 3D)) was 45.5 µM and 56.2 µM and 44.4 µM. For the same compound, the “Normalized I-TPC2” value ([5]; 1 µM + PI(3,5)P2 50nM, individual patches) was 0.01018 and 0.1053 and 0.1347, the “Normalized I-TPC2” value ([5]; 1 µM + PI(3,5)P2 50nM, mean) was 0.08342 and the “Normalized I-TPC2” value ([5]; 3 µM + PI(3,5)P2 50nM, individual patches) was -0.08987 and 0.1073 and 0.2183. The “Normalized I-TPC2” value ([5]; 3 µM + PI(3,5)P2 50nM, mean) was 0.07858, the “Normalized I-TPC2” value ([5]; 10 µM + PI(3,5)P2 50nM, individual patches) was -0.1017 and 0.1767 and 0.2594 and the “Normalized I-TPC2” value ([5]; 10 µM + PI(3,5)P2 50nM, mean) was 0.1115. The “Normalized I-TPC2” value ([5]; 10 µM, no PI(3,5)P2, individual patches) was 0.02985 and 0.03877 and 0.00366, the “Normalized I-TPC2” value ([5]; 10 µM, no PI(3,5)P2, mean) was 0.02409 and the “Normalized I-TPC2” value ([5]; 20 µM, no PI(3,5)P2, individual patches) was 0.03731 and 0.1741 and 0.01903. For the same compound, the “Normalized I-TPC2” value ([5]; 20 µM, no PI(3,5)P2, mean) was 0.07682, the “Normalized I-TPC2” value ([5]; 30 µM + PI(3,5)P2 50nM, individual patches) was 0.119 and 0.2972 and 0.3327 and the “Normalized I-TPC2” value ([5]; 30 µM + PI(3,5)P2 50nM, mean) was 0.2496. The “Normalized I-TPC2” value ([5]; 50 µM, no PI(3,5)P2, individual patches) was 0.2736 and 0.4263 and 0.3898, the “Normalized I-TPC2” value ([5]; 50 µM, no PI(3,5)P2, mean) was 0.3632 and the “Normalized I-TPC2” value ([5]; 100 µM + PI(3,5)P2 50nM, individual patches) was 0.8468 and 1 (2×). For the same compound, the “Normalized I-TPC2” value ([5]; 100 µM + PI(3,5)P2 50nM, mean) was 0.9489, the “Normalized I-TPC2” value ([5]; 100 µM, no PI(3,5)P2, individual patches) was 0.8657 and 1 and 0.7921 and the “Normalized I-TPC2” value ([5]; 100 µM, no PI(3,5)P2, mean) was 0.8859. The “Normalized I-TPC2” value ([5]; 200 µM + PI(3,5)P2 50nM, individual patches) was 1 and 0.5762 and 0.9144, the “Normalized I-TPC2” value ([5]; 200 µM + PI(3,5)P2 50nM, mean) was 0.8302 and the “Normalized I-TPC2” value ([5]; 200 µM, no PI(3,5)P2, individual patches) was 1 (2×) and 0.8492. For the same compound, the “Normalized I-TPC2” value ([5]; 200 µM, no PI(3,5)P2, mean) was 0.9497 and the “current, whole-cell ITRPML1-4A” value [6] was 28.1 pA and 29.7 pA and 114.4 pA and 172.7 pA.
